Reference: patent publication US5472954A, “Cyclodextrin complexation” (priority 1993, dated 1995)
Values after ≈ are worked out from the molar mass of the structure shown.

What was measured:
[1] = ΔH, ΔS and stability constant (Kc) of drug-HPβCD MS 0.6 complexes, effect of PVP (Example 17); type: physicochemical; conditions: for ΔH / ΔS: HPβCD MS 0.6 complex
Procedure: The effect of polyvinylpyrrolidone (PVP) on the enthalpy (ΔH) and the entropy (ΔS) of the stability constant (Kc) of the drug-cyclodextrin complex was determined.
An excess amount of the drug was added to water containing 0, 0.1, 0.25 or 0.5% (w/v) PVP and various amounts of HPβCD or HPαCD.

physchem [2] = experiment: physchem
physchem [3] = experiment: physchem; remark: listed apart in the source
physchem [4] = experiment: physchem; remark: listed apart in the source
physchem [5] = experiment: physchem; remark: listed apart in the source
[6] = Effect of polymers on the solubilization of various compounds in aqueous HPβCD solutions (Example 14)
Procedure: An excess amount of the compound to be tested was added to each solvent and the suspensions which formed were heated in sealed containers to 120° C. The solubility of salicylic acid was determined in acidic (HCl) solution.

[7] = Effect of previously prepared solid HPβCD-polymer complexing agent on solubility (Example 13); type: physicochemical
Procedure: The resultant solutions were heated in sealed containers to 120° C. and maintained at that temperature for 30 minutes, then were lyophilized. The solids thus obtained were ground with a mortar and pestle.
The solid cyclodextrin/polymer products were reconstituted with water to afford solutions containing 9.88% (w/v) HPβCD and 0.12% (w/v) PVP, 0.12% (w/v) or CMC 0.12% (w/v) HPMC. The solubilities (S) of three drugs in these solutions and in an aqueous solution containing 10% (w/v) HPβCD without added polymer were then determined as follows:
An excess amount of each drug was added to each of the four cyclodextrin solutions and the solutions were sonicated in an ultrasonic bath for 3 hours, then allowed to equilibrate for 60 hours at room temperature (23° C.). […] However, by separate preparation of the cyclodextrin/polymer complexing agent as illustrated here, one can readily avoid heating drugs which are unstable at elevated temperature.

[8] = HPβCD with CMC / HPβCD without polymer (S6)
[9] = HPβCD with HPMC / HPβCD without polymer (S8)
[10] = HPβCD with PVP / HPβCD without polymer (S7)

Structure (SMILES): C[C@]12CC[C@@H]3c4ccc(O)cc4CC[C@H]3[C@@H]1CC[C@@H]2O [17β-Estradiol, 17β-estradiol]
- ΔH ([1]; PVP 0.00% w/v): -17 kcal/mol
- ΔS ([1]; PVP 0.00% w/v): -151 J mol^-1 K^-1
- ΔH ([1]; PVP 0.10% w/v): -18 kcal/mol
- ΔS ([1]; PVP 0.10% w/v): -166 J mol^-1 K^-1
- ΔH ([1]; PVP 0.25% w/v): -21.4 kcal/mol
- ΔS ([1]; PVP 0.25% w/v): -213 J mol^-1 K^-1
- ΔH ([1]; PVP 0.50% w/v): -19.4 kcal/mol
- ΔS ([1]; PVP 0.50% w/v): -185 J mol^-1 K^-1

Structure (SMILES): CC(=O)Nc1nnc(S(N)(=O)=O)s1 [Acetazolamide, acetazolamide]
- ΔH ([1]; PVP 0.00% w/v): -4.4 kcal/mol
- ΔS ([1]; PVP 0.00% w/v): -26.0 J mol^-1 K^-1
- ΔH ([1]; PVP 0.10% w/v): -6.17 kcal/mol
- ΔS ([1]; PVP 0.10% w/v): -49.6 J mol^-1 K^-1
- ΔH ([1]; PVP 0.25% w/v): -5.93 kcal/mol
- ΔS ([1]; PVP 0.25% w/v): -46.2 J mol^-1 K^-1
- ΔH ([1]; PVP 0.50% w/v): -6.17 kcal/mol
- ΔS ([1]; PVP 0.50% w/v): -49.8 J mol^-1 K^-1
- increase in apparent stability constant ([1]; HPβCD complex, 0.25% PVP (w/v)): 13%
- solubility (physchem [2]; 0.25% cmc + 10% hpbetacd): 3110 µg/mL
- solubility (physchem [2]; aqueous 0.25% cmc): 840 µg/mL (≈ 3.78 mM)
- solubility (physchem [2]; aqueous 10% hpbetacd): 2520 µg/mL (≈ 11.3 mM)
- solubility (physchem [2]; water): 700 µg/mL (≈ 3.15 mM)
- solubility (physchem [3]; 0.10% cmc, 10% hpβcd): 3600 µg/mL (≈ 16.2 mM)
- solubility (physchem [3]; 0.25% cmc, 10% hpβcd): 3210 µg/mL (≈ 14.4 mM)
- solubility (physchem [3]; 0.50% cmc, 10% hpβcd): 3750 µg/mL (≈ 16.9 mM)
- solubility (physchem [3]; aqueous 10% hpβcd ms=0.9): 2520 µg/mL (≈ 11.3 mM)
- solubility at 72 h (physchem [4]; 0.25% pvp, 10% hpβcd): 3660 µg/mL (≈ 16.5 mM)
- solubility at 72 h (physchem [4]; 10% hpβcd ms 0.7): 2800 µg/mL (≈ 12.6 mM)
- solubility at 72 h (physchem [4]; aqueous 0.25% pvp): 1050 µg/mL (≈ 4.72 mM)
- solubility at 72 h (physchem [4]; water): 700 µg/mL (≈ 3.15 mM)
- solubility (physchem [5]; 0.25% cmc in water): 840 µg/mL (≈ 3.78 mM)
- solubility (physchem [5]; 0.25% cmc, 10% hpbcd): 3110 µg/mL (≈ 14 mM)
- solubility (physchem [5]; 10% ethanol in water, organic solvent or mixture): 1110 µg/mL (≈ 4.99 mM)
- solubility (physchem [5]; 10% ethanol, 0.25% cmc, organic solvent or mixture): 750 µg/mL (≈ 3.37 mM)
- solubility (physchem [5]; 10% ethanol, 10% hpbcd, organic solvent or mixture): 2190 µg/mL (≈ 9.85 mM)
- solubility (physchem [5]; 10% hpbcd in water): 2520 µg/mL (≈ 11.3 mM)
- solubility (physchem [5]; ethanol, cmc, hpbcd, organic solvent or mixture): 2500 µg/mL (≈ 11.2 mM)
- solubility (physchem [5]; water): 700 µg/mL (≈ 3.15 mM)

Structure (SMILES): Cc1nnc2n1-c1ccc(Cl)cc1C(c1ccccc1)=NC2 [Alprazolam]
- solubility (physchem [2]; 0.25% cmc + 10% hpbetacd): 1550 µg/mL
- solubility (physchem [2]; aqueous 0.25% cmc): 180 µg/mL (≈ 0.583 mM)
- solubility (physchem [2]; aqueous 10% hpbetacd): 1280 µg/mL (≈ 4.15 mM)
- solubility (physchem [2]; water): 70 µg/mL (≈ 0.227 mM)

Structure (SMILES): COc1ccc(O)c(C(C)(C)C)c1 [Butylated hydroxyanisole]
- S2 solubility ([6]; 0.25% (w/v) CMC): 400 µg/mL
- S4 solubility ([6]; 0.25% (w/v) HPMC): 280 µg/mL
- S3 solubility ([6]; 0.25% (w/v) PVP): 1240 µg/mL
- S6 solubility ([6]; 0.25% CMC and 10% HPβCD MS=0.6 (salicylic acid: acidic HCl solution)): 14300 µg/mL
- S8 solubility ([6]; 0.25% HPMC and 10% HPβCD MS=0.6 (salicylic acid: acidic HCl solution)): 15500 µg/mL
- S7 solubility ([6]; 0.25% PVP and 10% HPβCD MS=0.6 (salicylic acid: acidic HCl solution)): 15800 µg/mL
- S5 solubility ([6]; 10% (w/v) HPβCD MS=0.6 (salicylic acid: acidic HCl solution)): 13900 µg/mL
- solubility ratio [6, 8]: 1.03
- solubility ratio [6, 9]: 1.12
- solubility ratio [6, 10]: 1.14
- S1 solubility ([6]; water): 400 µg/mL

Structure (SMILES): CC12CCC(CC1=O)C2(C)C (stereo not drawn) [Camphor]
- solubility ([6]; 0.25% hpmc + 10% hpβcd): 13300 µg/mL
- solubility ([6]; 0.25% pvp + 10% hpβcd): 13700 µg/mL
- solubility ([6]; aqueous 0.25% cmc): 2010 µg/mL (≈ 13.2 mM)
- solubility ([6]; aqueous 0.25% cmc, 10% hpβcd): 13800 µg/mL (≈ 90.6 mM)
- solubility ([6]; aqueous 0.25% hpmc): 1920 µg/mL (≈ 12.6 mM)
- solubility ([6]; aqueous 0.25% pvp): 2200 µg/mL (≈ 14.5 mM)
- solubility ([6]; aqueous 10% hpβcd): 12700 µg/mL (≈ 83.4 mM)
- solubility ([6]; water): 1840 µg/mL (≈ 12.1 mM)

Structure (SMILES): CC(C)(O)C(Cl)(Cl)Cl [Chlorbutol]
- solubility ([6]; 0.25% hpmc + 10% hpβcd): 29900 µg/mL
- solubility ([6]; aqueous 0.25% cmc): 8410 µg/mL (≈ 47.4 mM)
- solubility ([6]; aqueous 0.25% cmc, 10% hpβcd): 29300 µg/mL (≈ 165 mM)
- solubility ([6]; aqueous 0.25% hpmc): 8150 µg/mL (≈ 45.9 mM)
- solubility ([6]; aqueous 0.25% pvp): 8410 µg/mL (≈ 47.4 mM)
- solubility ([6]; aqueous 10% hpβcd): 28600 µg/mL (≈ 161 mM)
- solubility ([6]; water): 8110 µg/mL (≈ 45.7 mM)

Structure (SMILES): C=C1CC[C@H](O)C/C1=C/C=C1\CCC[C@]2(C)[C@@H]([C@H](C)CCCC(C)C)CC[C@@H]12 [Cholecalciferol]
- solubility ([6]; 0.25% hpmc + 10% hpβcd): 690 µg/mL
- solubility ([6]; 0.25% pvp + 10% hpβcd): 760 µg/mL
- solubility ratio [6, 8]: 1.18
- solubility ratio [6, 9]: 1.14
- solubility ratio [6, 10]: 1.25
- solubility ([6]; aqueous 0.25% cmc, 10% hpβcd): 720 µg/mL (≈ 1.87 mM)
- solubility ([6]; aqueous 10% hpβcd): 610 µg/mL (≈ 1.59 mM)

Structure (SMILES): Clc1ccccc1C(c1ccccc1)(c1ccccc1)n1ccnc1 [Clotrimazole, clotrimazole]
- solubility (physchem [2]; 0.25% cmc + 10% hpbetacd): 1400 µg/mL
- solubility (physchem [2]; aqueous 10% hpbetacd): 1200 µg/mL (≈ 3.48 mM)
- solubility at 72 h (physchem [4]; 0.25% pvp, 10% hpβcd): 1800 µg/mL (≈ 5.22 mM)
- solubility at 72 h (physchem [4]; 10% hpβcd ms 0.7): 1200 µg/mL (≈ 3.48 mM)

Structure (SMILES): Clc1ccc(COC(Cn2ccnc2)c2ccc(Cl)cc2Cl)cc1 (stereo not drawn) [Econazole, econazole]
- solubility ([7]; 9.88% hpbetacd + 0.12% cmc, 9.88% (w/v) HPβCD and 0.12% (w/v) CMC, read-out: S3 solubility): 5200 µg/mL
- solubility ([7]; 9.88% hpbetacd + 0.12% hpmc, 9.88% (w/v) HPβCD and 0.12% (w/v) HPMC, read-out: S4 solubility): 6320 µg/mL
- solubility ([7]; 9.88% hpbetacd + 0.12% pvp, 9.88% (w/v) HPβCD and 0.12% (w/v) PVP, read-out: S2 solubility): 5570 µg/mL
- solubility ([7]; 10% hpbetacd, 10% (w/v) HPβCD, read-out: S1 solubility): 4860 µg/mL (≈ 12.7 mM)
- solubility (physchem [2]; 0.25% cmc + 10% hpbetacd): 7410 µg/mL
- solubility (physchem [2]; aqueous 0.25% cmc): 600 µg/mL (≈ 1.57 mM)
- solubility (physchem [2]; aqueous 10% hpbetacd): 4860 µg/mL (≈ 12.7 mM)
- solubility (physchem [2]; water): 570 µg/mL (≈ 1.49 mM)
- solubility at 72 h (physchem [4]; 0.25% pvp, 10% hpβcd): 5650 µg/mL (≈ 14.8 mM)
- solubility at 72 h (physchem [4]; 10% hpβcd ms 0.7): 5220 µg/mL (≈ 13.7 mM)
- solubility at 72 h (physchem [4]; aqueous 0.25% pvp): 640 µg/mL (≈ 1.68 mM)
- solubility at 72 h (physchem [4]; water): 570 µg/mL (≈ 1.49 mM)
